Measurements taken from publication PMC4481117 (Molecular Pain, 2015).

How the values were obtained:
U937 monocytic cells = assay: Chemotaxis migration assay of U937 cells to Dyn A agarose gel; assay type: cell-based, human
Experimental: Fig. 7 Chemotactic response of U937 cells to Dyn A. a, schematic representation of the experimental format. U937 cells (5x10^4) were placed in the center of the coverslip between two agar gels, one containing Dyn A and control gel without Dyn A. After 2 h at 37 °C, a series of photographs was taken in the direction of migration at 1-mm intervals to count the number of migrating cells. b , representative images after 2 h of migration show the cells within the starting point (marked with a cross; right panels) and at the border of the Dyn A-containing agar drop (left panels). […] Two bottom panels show the experimental condition with no Dyn A gradient. c, quantification of U937 cells migrated from the initial point after 2 h based on the results shown in A (right panel). Migration of control untreated U937 cells that completely migrated from the initial point of cell placement was assigned a value of 100 %. In contrast, there was no cell migration without a Dyn A gradient (0 %). […] A representative experiment is shown. d, distribution of U937 cells between two gels: Dyn A-containing (on the left) and without Dyn A (on the right). “0” on abscissa corresponds to the initial point where cells were loaded and the numbers show the distance that cells migrated in both directions from the starting point. All cells in each of 10 consecutive fields towards the Dyn A-containing and empty gels were counted and plotted as a distance from the starting point
Chemotaxis assays using U937 monocytic cells were performed on 22 × 22 mm cover slips. 1 % agarose (Life Technologies, Carlsbad, CA) was dissolved in HBSS by heating. After cooling, the agarose solution was mixed with Dyn A to obtain a final concentration of 10 μM. A 10 μl drop of warm agarose solution containing Dyn A was placed at one corner of the cover glass at ~1.5 mm from the edge. A control agarose drop was placed diagonally at the opposite corner of the cover glass. Agarose was allowed to solidify for 5 min, and the cover glasses were placed into wells of the 6-well plate filled with 5 ml of RPMI 1640 + 10 % FBS. A 10-μl aliquot of U937 cells (5x10^4) was loaded in the center of the cover glass and the plate was incubated for 2 h at 37 °C in a humidified atmosphere containing 5 % CO2. In this experimental format, the cells sediment approximately 5 min after loading, forming an ~4 mm circle, and begin to migrate towards the Dyn A-containing agarose drop. […] The photographs were taken at 1-mm intervals in the direction of cell migration towards the dynorphin-containing or control agarose drops without dynorphin A. The number of cells at the starting point and in each of 10 consecutive fields towards the dynorphin-containing and empty gels were counted and plotted as a distance from the starting point.

IC-21 macrophages = assay: Phagocytosis of Dyn A-coated latex beads by IC-21 macrophages; assay type: cell-based, murine; conditions: heparin 20 μg/ml, naloxone 10 μM, rat IgG2b isotype control
Experimental: Fig. 8 Effect of Dyn A on phagocytosis of latex beads. a, Fluorescent latex beads (1x10^9/ml) were preincubated with Dyn A (50 μg/ml) for 40 min at 37 °C. Soluble peptide was removed from the beads by high-speed centrifugation. Peptide-coated beads were incubated with adherent IC-21 macrophages for 30 min at 37 °C. Nonphagocytosed beads were removed from cells by washing with PBS. […] Rat IgG2b was used as an isotype control for anti-αM mAb M1/70. Phagocytosis was quantified for five random fields per well using a 20x objective. Phagocytosis of Dyn A-treated beads was assigned as 100 %.
A suspension of fluorescent […] latex beads (1x10^9/ml) (FluoSpheres sulfate microspheres, Life Technologies, Carlsbad, CA) was incubated with 50 μg/ml of Dyn A for 40 min at 37 °C, then unbound peptide was removed by centrifugation. IC-21 murine macrophages (5 × 10^5/ml) were adhered on the cover glass for 30 min and 3 × 10^6 of peptide-coated beads were added to adherent IC-21 cells. After incubating for 30 minutes at 37 °C, nonphagocytosed beads were separated from macrophages by washing with 3x1 ml PBS and phagocytosed beads were counted in the presence of trypan blue. […] The ratio of beads per macrophage was quantified by taking photographs of five fields for each well using a Leica DM4000 B microscope (Leica Microsystems, Buffalo Grove, IL) with a 20 × objective.

Mac-1 = Mac-1 mediated cell adhesion, effect of naloxone; assay type: cell-based; conditions: control experiments, not shown
[1] = target: T1, Mac-1 (Mac-1-expressing HEK293 cells) (Homo sapiens, UniProt P05107+P11215); assay: Adhesion of Mac-1-HEK293 cells to immobilized peptide; assay type: cell-based; conditions: coated wells, calcein-labeled cells, 30 min at 37 °C
T1 construct: expressed in transfected cells
Experimental: (§1) For testing the role of glucosaminoglycans in cell adhesion, dynorphin A-coated wells were preincubated with 100 μl of 10 μg/ml of chondroitin sulfate A, chondroitin sulfate B and heparin. Aliquots (5x10^4cells) were added to the wells coated with 2 μM dynorphin A and adhesion was performed as described in A. Adhesion in the absence of Mac-1 inhibitors and glucosaminoglycans was assigned a value of 100 %. The data shown are the means ± S.E. from four separate experiments each with triplicate measurements. d , microtiter plate wells were coated with different concentrations of dynorphin B and adhesion of Mac-1-expressing and wild-type HEK293 cells was determined as described in A. The data shown are means of triplicate determinations, and error bars represent S.E. The figure is representative of 5 experiments. e. calcein-labeled Mac-1-HEK293 cells were preincubated without or with 10 μg/ml of mAb 44a and heparin, added to the wells coated with 20 μM of dynorphin B and adhesion was performed as described in A. Adhesion in the absence of inhibitors was assigned a value of 100 %.
(§2) Adhesion assays were performed essentially as described previously. […] Cells were labeled with 10 μM calcein for 30 min at 37 °C and washed twice with Hanks’ Balanced salt solution (HBSS) containing 0.1 % BSA. Aliquots (100 μl) of labeled cells (5x10^5/ml) were added to each well and allowed to adhere for 30 min at 37 °C. The non-adherent cells were removed by two washes with PBS. Fluorescence was measured in a CytoFluorII fluorescence plate reader (Perceptive Biosystems, Framingham, MA). In inhibition experiments, cells were mixed with different concentrations of peptides, NIF or mAbs for 20 min at 22 °C before they were added to the wells coated with adhesive substrates. In a separate set of experiments, after coating plates with dynorphins and post-coating with 1 % PVP, plates were incubated with 100 μl of 10 μg/ml chondroitin sulfate A, chondroitin sulfate B, or heparin for 20 min at 22 °C. After aspirating the solution, labeled cells were added and cell adhesion was analyzed as above.

[2] = test system: Mac-1 (Mac-1-HEK293 cells); assay: Inhibition of adhesion of Mac-1-HEK293 cells to fibrinogen by soluble peptides; assay type: cell-based, Human; conditions: soluble peptide, 2.5 μg/mL fibrinogen coating
Experimental: Fig. 4 Effect of soluble Dyn A on Mac-1-mediated cell adhesion to fibrinogen. a (left ordinate), calcein-labeled Mac-1-HEK293 cells were preincubated with different concentrations of dynorphin A (black bar), dynorphin B (open bar) or control peptide (gray bar) for […] at 22 °C and added to the wells of microtiter plates coated with 2.5 μg/mL fibrinogen. Cells were allowed to adhere for 30 minutes at 37 °C before removing nonadherent cells. […] Data are expressed as a percentage of total cell fluorescence
as §2, with “In a separate set of experiments, after coating plates with dynorphins and post-coating with 1 % PVP, plates were incubated with 100 μl of 10 μg/ml chondroitin sulfate A, chondroitin sulfate B, or heparin for 20 min at 22 °C.” left out

αMI-domain = αMI-domain binding to cellulose-bound peptide libraries (SPOT, autoradiography, densitometry); conditions: for Densitometry, % (αMI-domain binding): 9-mer peptides, 3-residue offset, N-acetylated, cellulose-bound via (β-Ala)2, 10 μg/ml 125I-labeled αMI-domain (active form), TBS 1 mM MgCl2, percentage of binding to peptide #1 (100 %); for αMI-domain binding (in words): cellulose-bound 9-mer libraries, 125I-labeled αMI-domain
Experimental: Fig. 1 Screening of the peptide library spanning the sequence of dynorphin AB for αMI-domain binding. a, Amino acid sequence of dynorphin AB (residues 1–32). b, Cellulose membrane with the assembled peptide library consisting of 9-mer peptides with three-residue offset was incubated with ^125I-labeled αMI-domain and subjected to autoradiography followed by densitometry. The αMI-domain binding was observed as dark spots. Spot #10 contains only the β-Ala spacer. The αMI-domain binding was expressed as a percentage of binding to peptide #1, which was assigned a value 100 % and is shown as the numbers on the right of each sequence. The peptide energies that serve as a measure of probability each peptide can interact with the αMI-domain were calculated as described TEXT PRINTED IN THE PICTURE: (B) 1 ([…]): Densitometry, %: 100; Energy, J/mole: -13824 | (B) 2 ([…]): Densitometry, %: 100; Energy, J/mole: -17197 | (B) 3 ([…]): Densitometry, %: 75; Energy, J/mole: -9119 | (B) 4 ([…]): Densitometry, %: 60; Energy, J/mole: -650 | (B) 5 ([…]): Densitometry, %: 40; Energy, J/mole: -2880 | (B) 6 ([…]): Densitometry, %: 90; Energy, J/mole: -5355 | (B) 7 ([…]): Densitometry, %: 90; Energy, J/mole: -12541 | (B) 8 ([…]): Densitometry, %: 100; Energy, J/mole: -12344 | (B) 9 ([…]): Densitometry, %: 100; Energy, J/mole: -9738 | (B) 10 (β-alanine control): Densitometry, %: 0 | (B) Control peptide ([…]): Energy, J/mole: 11107
Peptide libraries derived from dynorphin AB assembled on cellulose membrane supports were prepared by parallel spot synthesis as previously described. Peptides were COOH-terminally attached to cellulose via a (β-Ala)2 spacer and were acetylated N-terminally. The membrane-bound peptides were tested for their ability to bind the αMI-domain according to a previously described procedure. In brief, the membrane was blocked with 1 % BSA and then incubated with 10 μg/ml of ^125I-labeled αMI-domain in TBS containing 1 mM MgCl2. After washing, the membrane was dried and the αMI-domain binding was visualized by autoradiography.
Additional file 1: Figure S1. Identification of residues in dynorphin A critical for α MI-domain binding. The dynorphin AB-based substitutional peptide libraries with single, double or triple mutations of basic residues were prepared by SPOT synthesis as described in Experimental Procedures. Mutated amino acid residues are shown in red. The membranes with synthesized peptide libraries were incubated with ^125I-labeled α MI-domain and subjected to autoradiography. The α MI-domain binding was analyzed by densitometry and expressed in arbitrary units with the strongest binding to wild-type peptides assigning a value of 4+. The peptides that partially lost their ability to bind the α MI-domain were grouped according to their activity and marked as 3+, 2+ and +. The peptides that lost their ability to bind the α MI-domain are marked with “NB “.

[3] = test system: Mac-1 (Mac-1-HEK293 cells); assay: Inhibition of adhesion of Mac-1-HEK293 cells to Dyn A; assay type: cell-based, Human; conditions: 2 μM Dyn A coating; for Inhibition of adhesion to Dyn A in combination with NIF (in words): glycosaminoglycan 10 μg/ml with NIF; for Inhibition of adhesion to Dyn A (in words): wells preincubated with glycosaminoglycan 10 μg/ml, 20 min, alone
Experimental: as §1, §2

Molecule | Densitometry, % (αMI-domain binding) (αMI-domain) | αMI-domain binding (in words) (αMI-domain) | other results
C=CCN1CC[C@]23c4c5ccc(O)c4O[C@H]2C(=O)CC[C@@]3(O)[C@H]1C5 [naloxone] |  |  | Mean distance travelled by inhibitor-treated cells (U937 monocytic cells; Dyn A gradient, 2 h, mAb 44a 20 μg/ml or naloxone 10 μM): ~ 5 mm; Migration from initial point blocked (U937 monocytic cells; mAb 44a 20 μg/ml or naloxone 10 μM, 30 min preincubation, 2 h at 37 °C, representative experiment): ~ 20%; Arrival of inhibitor-treated cells at Dyn A-containing drop (U937 monocytic cells; mAb 44a 20 μg/ml or naloxone 10 μM, 2 h): only a few cells arrived; Cells remaining at the start (U937 monocytic cells; naloxone 10 μM, Dyn A gradient, 2 h): ~ 20%; Effect on Dyn A-mediated phagocytosis (in words) (IC-21 macrophages): did not decrease the number of phagocytosed beads; Effect on Mac-1 mediated cell adhesion (Mac-1): does not affect Mac-1 mediated cell adhesion
DIDPKLKWD [control peptide, purchased from AnaSpec; also mutant in substitutional library] |  |  | Adhesion of Mac-1-HEK293 cells (in words) [1]: failed to support adhesion; Inhibition of adhesion to fibrinogen (in words) [2]: only slightly inhibitory
FLRRIRPKL | 100% | highest affinities | 
GFLRRQFKV | 100% |  | 
KWDNQKRYG | 40% | weakened their αMI-domain binding activity | 
NQKRYGGFL | 90% |  | 
PKLKWDNQK | 60% | weakened their αMI-domain binding activity | 
RIRPKLKWD | 75% | weakened their αMI-domain binding activity | 
RRQFKVVGG | 100% |  | 
RYGGFLRRQ | 90% |  | 
YGGFLRRIR | 100% | highest affinities | 
chondroitin sulfate A |  |  | Inhibition of adhesion to Dyn A in combination with NIF (in words) [3]: not exert a statistically significant inhibitory effect; Inhibition of adhesion to Dyn A (in words) [3]: not exert a statistically significant inhibitory effect
chondroitin sulfate B |  |  | Inhibition of adhesion to Dyn A in combination with NIF (in words) [3]: not exert a statistically significant inhibitory effect; Inhibition of adhesion to Dyn A (in words) [3]: not exert a statistically significant inhibitory effect
heparin |  |  | Inhibition of adhesion to Dyn A (in words) [3]: slight inhibition; Effect on Dyn A-mediated phagocytosis (in words) (IC-21 macrophages): did not decrease the number of phagocytosed beads
